Patent US6803466B1, “HIV/FIV protease inhibitors having a small P3 residue” (The Scripps Research Institute, priority 1997, dated 2004)

What was measured:
[1] = target: T1, HIV PR G48V (Human immunodeficiency virus type 1 group M subtype B, UniProt P03366, G548V); conditions: licensed drugs, literature; cited from earlier work
T1 construct: drug-resistant mutant HIV PRs G48V and V82F

[2] = target: T2, HIV PR V82F (Human immunodeficiency virus type 1 group M subtype B, UniProt P03366, V582F); conditions: licensed drugs, literature; cited from earlier work
T2 construct: drug-resistant mutant HIV PRs G48V and V82F

[3] = target: T3, FIV PR (Feline immunodeficiency virus, UniProt P16088, C122K/G43I/N93T); test: Inhibition of FIV PR (Ki, IC50); assay type: biochemical
T3 construct: made in house; host or cells: E. coli BL21(DE3)
Experimental: The solution was mixed and incubated for 10 minutes at 37° C. and the reaction quenched by addition of 8M guanidine HCl solution containing 0.2 M sodium acetate at pH 4.2 (100 μL). The cleavage products and substrate were separated by reverse phase HPLC. Absorbance was measured at 215 nm, peak areas were determined and percent conversion to product was calculated using relative peak areas. […] IC50 was determined as the inhibitor concentration at 50% inhibition. […] ([S]=substrate concentration in nmol). The data used was generated similarly to that for Ki with the following modifications. The substrate concentrations used were 560, 448, 336, 224, 111 and 56 μM, in the absence of inhibitor.
(§1) Kinetic determinations for both HIV PR and FIV PRs were performed at 37° C. at pH 5.25 in duplicate using F-2000 fluorescence spectrophotometer (Hitachi).
(§2) For FIV PRs, the kinetic data were determined under the similar reaction conditions as for HIV PR.

[4] = test system: mutant FIV PRs (FIV(V59I), FIV(Q99V)); test: Inhibition of mutant FIV PRs; assay type: biochemical, feline immunodeficiency virus
Experimental: The inhibitory effects of each inhibitor were evaluated against HIV and FIV PRs along with two mutant FIV PRs that contain amino acid substitutions corresponding to those in HIV PR at homologous sites.
as §2
Mutant FIV PRs were prepared that contained substitutions of HIV residues noted to be associated with drug resistance in HIV (16) at equivalent sites in the three dimensional structure.

[5] = test system: FIV-PPR in feline T-cells (104-C1); test: Ex vivo inhibitor analysis against FIV, pelletable reverse transcriptase in culture supernatant; assay type: cell-based, feline immunodeficiency virus
Experimental: For FIV, the assays were performed in FIV-infected feline T-cells which were cultured in the presence of compound 1200 at different concentrations over the course of 1 month. Each data in FIG. 14 represents the amount of pelletable FIV reverse transcriptase in the culture supernatant. […] After one month, the drug-treated cultures were split and replated with and without compound 1200.
The lymphocytic cell line 104-C1 (provided by C. Grant) was used as the target for infection. Cells were cultured in RPMI-1640 media supplemented with 10% FBS, 200 μM L-Glutamine, 1×MEM-Vitamins, 100 μM Sodium Pyruvate, 1×Non-Essential Amino Acids, 5.5×10−5M b-ME, 50 μg/ml Gentamicin, 50 U/ml human recombinant Interleukin-2 (provided by Hoffmann-LaRoche) and 7.5 μg/ml Concanavalin-A. For inhibitor assessment, 5×10^6 cells were infected with FIV-PPR (4×105 RT units) in 1 mL culture for 2 hr at 37° C. […] The cells were then washed with Hanks-buffered saline solution (HBSS) and resuspended in 10 ml of complete medium. The compound 1200 (10 mg/mL in DMSO) was then added to final concentrations of 0.1, 0.5, 1, and 5 μg/ml in duplicate. The cells were then incubated at 37° C. The culture supernatants were monitored for the presence of pelletable reverse transcriptase activity at weekly intervals, as follows. Cell-free culture supernatants (4 ml) were centrifuged at 60K for 30 min and the pellets were resuspended in 100 μl of lysis buffer containing 40 mM TrisHCl (pH 8.1), 360 mM NaCl, 20 mM DTT and 0.2% NP40. Twenty five μl of lysate was added to 25 μl of a mixture containing polyrA-pdT (Pharmacia, Piscataway, N.J.), MgCl2, and 3H-labeled deoxythymidine 5′-triphosphate (DuPont NEN, Boston, Mass.), and incubated for 1 hr at 37° C. The mixture was spotted on DE81 paper, air-dried, fixed in 0.1 M sodium pyrophosphate, washed three times in 0.3 M ammonium formate, and an additional time in 95% ethanol. The paper was then dried and counted on a scintillation counter.
Cells were split 1:5 after the second, third, and fourth time points and fresh inhibitor was added at the appropriate concentration at each of these intervals. The data were expressed as values +/−standard deviation of the mean.

[6] = target: T4, HIV PR (Human immunodeficiency virus type 1 group M subtype B, UniProt P03366, Q507K); test: Inhibition of HIV PR (Ki, IC50), fluorogenic substrate; assay type: biochemical
T4 construct: initiator Met plus the eight Pol residues preceding PR (N-terminal extension of the expressed precursor) (N); made in house; host or cells: E. coli BL21.DE3, pLysS
Experimental: The solution was mixed and incubated over 5 minutes during which time the rate of substrate cleavage was monitored by continuously recording the change in fluorescence of the assay solution. An excitation filter of 325 nm, and an emission filter of 420 nm were used.
Determination of Ki for HIV protease was performed similarly with the following modifications. The substrate concentrations used were 57, 43, 28 and 14 μM. All other concentrations were as above. The curve fit for the data was determined and the subsequent Ki derived using a computer program based on the equation of Morrison et. al. BioChim. Biophys. ACTA 1969,185, 269, for tight binding inhibitors.
as §1
For HIV PR, the KM and Vmax values for the fluorogenic peptide substrate 2-aminobenzoyl (Abz)-Thr-Ile-Nle-Phe-(p-NO2)-Gln-Arg-NH2 (SEQ ID NO: 3) Toth et al Int. J. Peptide Res. 36, 544-550 were determined by measuring the initial rate of hydrolysis at different substrate concentrations (5.0, 7.5, 10, 20, 35, 50, 100, and 200 μM) by monitoring the change in fluorescence at an excitation wavelength of 325 nm and an emission wavelength of 420 nm, and fitting the obtained data to the Michaelis-Menten equation using the Grafit program (version 3.0, Erithacus Software Ltd., UK). Assays were run in 0.1 M MES buffer, containing 5% (v/v) glycerol, and 5% (v/v) DMSO (200 μl final volume). The enzyme concentration (30 μg/ml) which gave ideal progress curve was used for assays, but the dimeric active HIV PR concentration was not accurately determined. […] The curve fit the data was determined, and the subsequent Ki was derived using the Grafit program.

[7] = target: T3, FIV PR; conditions: relative to HIV PR; Slee et al.; cited from earlier work

Structure (SMILES) | higher IC50 / decreased potency, G48V mutant compared to wild-type HIV PR [1] | higher IC50 / less sensitive, V82F mutant compared to wild-type HIV PR [2] | Ki [3] | inhibition of FIV PR (in words) [3] | Ki [6] | further results
CC(C)c1nc(CN(C)C(=O)N[C@H](C(=O)N[C@@H](Cc2ccccc2)C[C@H](O)[C@H](Cc2ccccc2)NC(=O)OCc2cncs2)C(C)C)cs1 [ABT-538] | 17 fold | 90 fold | – | – | – | –
Cc1c(O)cccc1C(=O)N[C@@H](CSc1ccccc1)[C@H](O)CN1C[C@H]2CCCC[C@H]2C[C@H]1C(=O)NC(C)(C)C [AG-1343] | – | 15 fold | – | – | – | –
CC(C)[C@H](NC(=O)[C@H](Cc1ccccc1)NC(=O)OCc1ccccc1)C(=O)N[C@@H](Cc1ccccc1)[C@@H](O)[C@H](O)[C@H](Cc1ccccc1)NC(=O)[C@@H](NC(=O)[C@H](Cc1ccccc1)NC(=O)OCc1ccccc1)C(C)C [Compound 10b] | – | – | 7000 nM | – | – | lower potency than 1b against FIV PR ([3]; versus 1b): 170 fold; lower potency compared to 1100, FIV PR ([3]; versus 1100): 45 fold; Ki higher / potency lower than 1200, FIV PR ([3]; versus 1200): 170 fold; activity against mutant FIV PRs compared to wild type FIV PR (in words) [4]: very similar activities
CC(C)[C@H](NC(=O)[C@H](CO)NC(=O)OCc1ccccc1)C(=O)N[C@@H](Cc1ccccc1)[C@@H](O)[C@H](O)[C@H](Cc1ccccc1)NC(=O)[C@@H](NC(=O)[C@H](CO)NC(=O)OCc1ccccc1)C(C)C [Compound 12] | – | – | 32 nM | effective inhibitors | 0.58 nM | prevention of FIV infection in tissue culture (in words) [5]: not as effective as 1b; inhibition of HIV PR (in words) [6]: effective inhibitors; higher potency against HIV PR compared to 1b ([6]; versus 1b): 3 fold
CC(C)(C)NC(=O)[C@@H]1CN(Cc2cccnc2)CCN1C[C@@H](O)C[C@@H](Cc1ccccc1)C(=O)N[C@H]1c2ccccc2C[C@H]1O [MK-639] | – | 7 fold | – | – | – | –
CC(C)(C)NC(=O)[C@@H]1C[C@@H]2CCCC[C@@H]2CN1C[C@@H](O)[C@H](Cc1ccccc1)NC(=O)[C@H](CC(N)=O)NC(=O)c1ccc2ccccc2n1 [RO31-8959, reference compound] | 27 fold | – | 76000 nM | total loss of potency | 1.6 nM | less efficient inhibitor of FIV PR, factor [7]: ≥ 100
